System: KRAS-mutant PDC tumor spheroid with HUVEC/MSC, viability
Assay: Anticancer human tumor 327498-153-R-J2-PDC patient-derived uterine carcinosarcoma cell line growth inhibition [KRAS2]
Settings: for viability, T/C: stronger effect = lower value
How it was run: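 KRAS-mutant tumor cells were grown as spheroids with HUVEC endothelial cells and human MSCs as stroma. Targeted agents were tested alone and with KRAS pathway inhibitors. Doses started at or near clinical Cmax, or 10 microM, descending half-log.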

[1] = curve of first compound, second compound 0.1 µM
[2] = curve of first compound, second compound 0.316 µM
[3] = curve of first compound, second compound 1 µM
[4] = curve of first compound, second compound 3.16 µM
[5] = curve of first compound, second compound 10 µM
[6] = second compound 0.1 µM, first compound 0.0316 µM
[7] = second compound 0.1 µM, first compound 0.1 µM
[8] = second compound 0.316 µM, first compound 0.0316 µM
[9] = second compound 0.316 µM, first compound 0.1 µM
[10] = second compound 1 µM, first compound 0.0316 µM
[11] = second compound 1 µM, first compound 0.1 µM
[12] = second compound 3.16 µM, first compound 0.0316 µM
[13] = second compound 3.16 µM, first compound 0.1 µM
[14] = second compound 10 µM, first compound 0.0316 µM
[15] = second compound 10 µM, first compound 0.1 µM
[16] = second compound 0.1 µM, first compound 0.000316 µM
[17] = second compound 0.1 µM, first compound 0.001 µM
[18] = second compound 0.1 µM, first compound 0.00316 µM
[19] = second compound 0.1 µM, first compound 0.01 µM
[20] = second compound 0.316 µM, first compound 0.000316 µM
[21] = second compound 0.316 µM, first compound 0.001 µM
[22] = second compound 0.316 µM, first compound 0.00316 µM
[23] = second compound 0.316 µM, first compound 0.01 µM
[24] = second compound 1 µM, first compound 0.000316 µM
[25] = second compound 1 µM, first compound 0.001 µM
[26] = second compound 1 µM, first compound 0.00316 µM
[27] = second compound 1 µM, first compound 0.01 µM
[28] = second compound 3.16 µM, first compound 0.000316 µM
[29] = second compound 3.16 µM, first compound 0.001 µM
[30] = second compound 3.16 µM, first compound 0.00316 µM
[31] = second compound 3.16 µM, first compound 0.01 µM
[32] = second compound 10 µM, first compound 0.000316 µM
[33] = second compound 10 µM, first compound 0.001 µM
[34] = second compound 10 µM, first compound 0.00316 µM
[35] = second compound 10 µM, first compound 0.01 µM
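Further: spheroids exposed to agents for seven days before reading.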
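Wherever viability, T/C is given: 100% = DMSO vehicle wells so lower means fewer viable cells.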

Molecule CC1(C)CCC(CN2CCN(c3ccc(C(=O)NS(=O)(=O)c4ccc(NCC5CCOCC5)c([N+](=O)[O-])c4)c(Oc4cnc5[nH]ccc5c4)c3)CC2)=C(c2ccc(Cl)cc2)C1 + COc1cc2nc(C)nc(NC(C)c3cc(N)cc(C(F)(F)F)c3)c2cc1OC1CCOC1 has an IC50 [1] of 3.2 µM, an IC50 [2] of 2.27 µM and an IC50 [3] of 2.01 µM. For the same molecule, the IC50 [4] was 1.49 µM, the IC50 [5] was 0.178 µM and the viability, T/C [6] was 78.8%. The viability, T/C [7] was 80.5%, the viability, T/C (second compound 0.1 µM, first compound 0.316 µM) was 76.9% and the viability, T/C (second compound 0.1 µM, first compound 1 µM) was 77.3%. The viability, T/C (second compound 0.1 µM, first compound 3.16 µM) was 50.5%, the viability, T/C (second compound 0.1 µM, first compound 10 µM) was 4.9% and the viability, T/C [8] was 74.3%. It also gave a viability, T/C [9] of 64.3%, a viability, T/C (second compound 0.316 µM, first compound 0.316 µM) of 75.4% and a viability, T/C (second compound 0.316 µM, first compound 1 µM) of 71.1%. It also gave a viability, T/C (second compound 0.316 µM, first compound 3.16 µM) of 41.5%, a viability, T/C (second compound 0.316 µM, first compound 10 µM) of 1.82% and a viability, T/C [10] of 74.1%. The viability, T/C [11] was 72%, the viability, T/C (second compound 1 µM, first compound 0.316 µM) was 65.9% and the viability, T/C (second compound 1 µM, first compound 1 µM) was 67.8%. The viability, T/C (second compound 1 µM, first compound 3.16 µM) was 38.8%, the viability, T/C (second compound 1 µM, first compound 10 µM) was 0.73% and the viability, T/C [12] was 65.2%. It also gave a viability, T/C [13] of 65.3%, a viability, T/C (second compound 3.16 µM, first compound 0.316 µM) of 66.7% and a viability, T/C (second compound 3.16 µM, first compound 1 µM) of 61.5%. It also gave a viability, T/C (second compound 3.16 µM, first compound 3.16 µM) of 28.4%, a viability, T/C (second compound 3.16 µM, first compound 10 µM) of 3.34% and a viability, T/C [14] of 53%. The viability, T/C [15] was 54.6%, the viability, T/C (second compound 10 µM, first compound 0.316 µM) was 42.1% and the viability, T/C (second compound 10 µM, first compound 1 µM) was 39.9%. For the same molecule, the viability, T/C (second compound 10 µM, first compound 3.16 µM) was 11.5% and the viability, T/C (second compound 10 µM, first compound 10 µM) was 0.44%.
With CN(C)C/C=C/C(=O)Nc1cc2c(Nc3ccc(F)c(Cl)c3)ncnc2cc1O[C@H]1CCOC1 + CNCc1ccccc1-c1csc(C(C)Nc2nc(C)nc3cc(OC)c(OC)cc23)c1 the IC50 [1] was > 0.1 µM, the IC50 [2] was > 0.1 µM and the IC50 [3] was > 0.1 µM. For the same molecule, the IC50 [4] was 0.00172 µM, the IC50 [5] was < 0.000316 µM and the viability, T/C [16] was 87.9%. For the same molecule, the viability, T/C [17] was 79.1%, the viability, T/C [18] was 79.7% and the viability, T/C [19] was 81%. For the same molecule, the viability, T/C [6] was 71.5%, the viability, T/C [7] was 77.4% and the viability, T/C [20] was 78.9%. The viability, T/C [21] was 67.8%, the viability, T/C [22] was 73.9% and the viability, T/C [23] was 67.2%. It also gave a viability, T/C [8] of 65.8%, a viability, T/C [9] of 64% and a viability, T/C [24] of 76.6%. For the same molecule, the viability, T/C [25] was 67.9%, the viability, T/C [26] was 64% and the viability, T/C [27] was 73.4%. The viability, T/C [10] was 58.2%, the viability, T/C [11] was 65.7% and the viability, T/C [28] was 62.1%. The viability, T/C [29] was 51.1%, the viability, T/C [30] was 42.6% and the viability, T/C [31] was 1.18%. It also gave a viability, T/C [12] of 22.6%, a viability, T/C [13] of 21.1% and a viability, T/C [32] of 0.49%. The viability, T/C [33] was 0.76%, the viability, T/C [34] was 0.34% and the viability, T/C [35] was 0.27%. It also gave a viability, T/C [14] of 1.73% and a viability, T/C [15] of 0.36%.
CC(=O)OC12COC1CC(O)C1(C)C(=O)C(O)C3=C(C)C(OC(=O)C(O)C(NC(=O)OC(C)(C)C)c4ccccc4)CC(O)(C(OC(=O)c4ccccc4)C21)C3(C)C (configuration not stated) was tested, and the viability, T/C (compound 0.01 µM) was 8.03% [middle of 5 runs], the viability, T/C (compound 0.0316 µM) was 6.44% [middle of 5 runs] and the viability, T/C (compound 0.1 µM) was 6.83% [middle of 5 runs]. For the same molecule, the viability, T/C (compound 0.316 µM) was 7.35% [middle of 5 runs], the viability, T/C (compound 1 µM) was 10.6% [middle of 5 runs] and the viability, T/C (compound 3.16 µM) was 12.8% [middle of 5 runs]. The IC50 (curve of compound) was < 0.01 µM.
Cn1ncnc1[C@H]1c2n[nH]c(=O)c3cc(F)cc(c23)N[C@@H]1c1ccc(F)cc1 + COc1cc2nc(C)nc(NC(C)c3cc(N)cc(C(F)(F)F)c3)c2cc1OC1CCOC1 showed an IC50 [1] of 0.0125 µM, an IC50 [2] of 0.00903 µM and an IC50 [3] of 0.00431 µM. The IC50 [4] was 0.00737 µM, the IC50 [5] was 0.0014 µM and the viability, T/C [16] was 79.3%. For the same molecule, the viability, T/C [17] was 82.3%, the viability, T/C [18] was 68.9% and the viability, T/C [19] was 54.5%. For the same molecule, the viability, T/C [6] was 33.3%, the viability, T/C [7] was 20.1% and the viability, T/C [20] was 82.1%. For the same molecule, the viability, T/C [21] was 63.5%, the viability, T/C [22] was 68.6% and the viability, T/C [23] was 48.1%. For the same molecule, the viability, T/C [8] was 32.2%, the viability, T/C [9] was 20.5% and the viability, T/C [24] was 76.6%. The viability, T/C [25] was 69.7%, the viability, T/C [26] was 50% and the viability, T/C [27] was 42.1%. It also gave a viability, T/C [10] of 28.7%, a viability, T/C [11] of 20.1% and a viability, T/C [28] of 62.9%. For the same molecule, the viability, T/C [29] was 68.8%, the viability, T/C [30] was 58.1% and the viability, T/C [31] was 47.3%. It also gave a viability, T/C [12] of 26.5%, a viability, T/C [13] of 20.4% and a viability, T/C [32] of 50%. The viability, T/C [33] was 51.6%, the viability, T/C [34] was 48.5% and the viability, T/C [35] was 42%. It also gave a viability, T/C [14] of 27.8% and a viability, T/C [15] of 18.5%.

Source: PubChem BioAssay AID1963867 (Molecular Pharmacology Branch, DTP, NCI, 2024)
